Test system: IL-1β release in U937 cells after NLRP3 activation
Test: IL-1β release inhibition in U937 cells (MSD V-Plex)
Conditions: Homo sapiens, U-937, read-out: IL-1β IC50, Table 3; PMA-differentiated U937 cells, 1 μg/mL LPS 3 h, compound 30 min, 10 mM nigericin 1 h

| SMILES | IC50 |
| --- | --- |
| Cc1cc(N[C@@H]2CCCN(CC(=O)N3CCC4(CC3)CC(O)C4)C2)nnc1-c1ccc(C(F)(F)F)cc1O [Compound 15, 2-[(3R)-3-({6-[2-Hydroxy-4-(trifluoromethyl)phenyl]-5-methylpyridazin-3-yl}amino)piperidin-1-yl]-1-{2-hydroxy-7-azaspiro[3.5]nonan-7-yl}ethanone] | < 5 nM |
| Cc1cc(N[C@@H]2CCCN(CC(=O)N3CC4(CC(O)C4)C3)C2)nnc1-c1ccc(C(F)(F)F)cc1O [Compound 16, (R)-2-(3-((6-(2-Hydroxy-4-(trifluoromethyl)phenyl)-5-methylpyridazin-3-yl)amino)piperidin-1-yl)-1-(6-hydroxy-2-azaspiro[3.3]heptan-2-yl)ethan-1-one] | 5 to 50 nM |
| Cc1cc(N[C@@H]2CCCN(CC(=O)N3CC4(CCC(O)CC4)C3)C2)nnc1-c1ccc(C(F)(F)F)cc1O [Compound 17, (R)-2-(3-((6-(2-Hydroxy-4-(trifluoromethyl)phenyl)-5-methylpyridazin-3-yl)amino)piperidin-1-yl)-1-(7-hydroxy-2-azaspiro[3.5]nonan-2-yl)ethan-1-one] | < 5 nM |
| Oc1cc(C(F)(F)F)ccc1-c1nnc(N[C@@H]2CCCN(CCN3CCC(O)CC3)C2)c2c1CCC2 [Compound 19, 1-{2-[(3R)-3-({4-[2-Hydroxy-4-(trifluoromethyl)phenyl]-5H,6H,7H-cyclopenta[d]pyridazin-1-yl}amino)piperidin-1-yl]ethyl}piperidin-4-ol] | 50 to 500 nM |
| O=C(CN1CCC[C@@H](Nc2nnc(-c3ccc(F)cc3O)c3c2CCC3)C1)N1CCC(O)CC1 [Compound 20, 2-[(3R)-3-{[4-(4-Fluoro-2-hydroxyphenyl)-5H,6H,7H-cyclopenta[d]pyridazin-1-yl]amino}piperidin-1-yl]-1-(4-hydroxypiperidin-1-yl) ethenone] | 50 to 500 nM |
| O=C(CN1CCC[C@@H](Nc2nnc(-c3ccc(C(F)(F)F)cc3O)c3c2COC3)C1)N1CC(O)C1 [Compound 22, (R)-2-(3-((4-(2-Hydroxy-4-(trifluoromethyl)phenyl)-5,7-dihydrofuro[3,4-d]pyridazin-1-yl)amino)piperidin-1-yl)-1-(3-hydroxyazetidin-1-yl)ethan-1-one] | 5 to 50 nM |
| O=C(CN1CCC[C@@H](Nc2nnc(-c3ccc(C(F)(F)F)cc3O)c3c2COC3)C1)N1CCC(O)CC1 [Compound 23, (R)-2-(3-((4-(2-Hydroxy-4-(trifluoromethyl)phenyl)-5,7-dihydrofuro[3,4-d]pyridazin-1-yl)amino)piperidin-1-yl)-1-(4-hydroxypiperidin-1-yl)ethan-1-one] | < 5 nM |
| O=C(CN1CCC[C@@H](Nc2nnc(-c3ccc(C(F)(F)F)cc3O)c3c2COC3)C1)N1CCC2(CC1)CC(O)C2 [Compound 24, (R)-2-(3-((4-(2-Hydroxy-4-(trifluoromethyl)phenyl)-5,7-dihydrofuro[3,4-d]pyridazin-1-yl)amino)piperidin-1-yl)-1-(2-hydroxy-7-azaspiro[3.5]nonan-7-yl)ethan-1-one] | 5 to 50 nM |
| O=C(CN1CCC[C@@H](Nc2nnc(-c3ccc(C(F)(F)F)cc3O)c3c2COC3)C1)N1CC2(CCC(O)CC2)C1 [Compound 25, (R)-2-(3-((4-(2-Hydroxy-4-(trifluoromethyl)phenyl)-5,7-dihydrofuro[3,4-d]pyridazin-1-yl)amino)piperidin-1-yl)-1-(7-hydroxy-2-azaspiro[3.5]nonan-2-yl)ethan-1-one] | 5 to 50 nM |
| O=C(CN1CCC[C@@H](Nc2nnc(-c3ccc(C(F)(F)F)cc3O)c3c2COC3)C1)N1CC[C@H](O)C1 [Compound 26, 2-((R)-3-((4-(2-Hydroxy-4-(trifluoromethyl)phenyl)-5,7-dihydrofuro[3,4-d]pyridazin-1-yl)amino)piperidin-1-yl)-1-((S)-3-hydroxypyrrolidin-1-yl)ethan-1-one] | 5 to 50 nM |
| O=C(CN1CCC[C@@H](Nc2nnc(-c3ccc(C(F)(F)F)cc3O)c3c2COC3)C1)N1CC[C@@H](O)C1 [Example 27, 2-((R)-3-((4-(2-hydroxy-4-(trifluoromethyl)phenyl)-5,7-dihydrofuro[3,4-d]pyridazin-1-yl)amino)piperidin-1-yl)-1-((R)-3-hydroxypyrrolidin-1-yl) ethan-1-one] | 5 to 50 nM |
| O=C(CN1CCC[C@@H](Nc2nnc(-c3ccc(C(F)(F)F)cc3O)c3c2COC3)C1)N1C[C@H](O)[C@@H](F)C1 [Example 28, 1-((3S,4S)-3-Fluoro-4-hydroxypyrrolidin-1-yl)-2-((R)-3-((4-(2-hydroxy-4-(trifluoromethyl)phenyl)-5,7-dihydrofuro[3,4-d]pyridazin-1-yl)amino)piperidin-1-yl)ethan-1-one] | 5 to 50 nM |
| O=C(CN1CCC[C@@H](Nc2nnc(-c3ccc(C(F)(F)F)cc3O)c3c2COC3)C1)N1C[C@@H](O)[C@H](F)C1 [Example 29, 1-((3R,4R)-3-Fluoro-4-hydroxypyrrolidin-1-yl)-2-((R)-3-((4-(2-hydroxy-4-(trifluoromethyl)phenyl)-5,7-dihydrofuro[3,4-d]pyridazin-1-yl)amino)piperidin-1-yl)ethan-1-one] | 5 to 50 nM |
| Cc1c(N[C@@H]2CCCN(CC(=O)N3CCC(O)CC3)C2)nnc(-c2ccc(C(F)(F)F)cc2O)c1C [Example 30, (R)-2-(3-((6-(2-Hydroxy-4-(trifluoromethyl)phenyl)-4,5-dimethylpyridazin-3-yl)amino)piperidin-1-yl)-1-(4-hydroxypiperidin-1-yl)ethan-1-one] | 5 to 50 nM |
| Cc1cc(-c2ccc(C(F)(F)F)cc2O)nnc1N[C@@H]1CCCN(CC(=O)N2CC[C@H](O)C2)C1 [Example 31, 2-((R)-3-((6-(2-Hydroxy-4-(trifluoromethyl)phenyl)-4-methylpyridazin-3-yl)amino)piperidin-1-yl)-1-((S)-3-hydroxypyrrolidin-1-yl)ethan-1-one] | 50 to 500 nM |
| Cc1cc(-c2ccc(C(F)(F)F)cc2O)nnc1N[C@@H]1CCCN(CC(=O)N2CC[C@@H](O)C2)C1 [Example 32, 2-((R)-3-((6-(2-Hydroxy-4-(trifluoromethyl)phenyl)-4-methylpyridazin-3-yl)amino)piperidin-1-yl)-1-((R)-3-hydroxypyrrolidin-1-yl)ethan-1-one] | 5 to 50 nM |
| O=C(CN1CCC[C@@H](Nc2nnc(-c3ccc(C(F)(F)F)cc3O)c3ccccc23)C1)N1CCC(O)CC1 [Example 33, (R)-2-(3-((4-(2-Hydroxy-4-(trifluoromethyl)phenyl)phthalazin-1-yl)amino)piperidin-1-yl)-1-(4-hydroxypiperidin-1-yl)ethan-1-one] | < 5 nM |
| Oc1cc(C(F)(F)F)ccc1-c1nnc(N[C@@H]2CCCN(CCN3CC[C@H](O)C3)C2)c2c1COC2 [Example 35, (S)-1-(2-((R)-3-((4-(2-Hydroxy-4-(trifluoromethyl)phenyl)-5,7-dihydrofuro[3,4-d]pyridazin-1-yl)amino)piperidin-1-yl)ethyl)pyrrolidin-3-ol] | 5 to 50 nM |

Same assay, conditions: read-out: IL-1β IC50; Table 3; PMA-differentiated U937 cells, 1 μg/mL LPS 3 h, compound 30 min, 10 mM nigericin 1 h

| SMILES | IC50 |
| --- | --- |
| Cc1cc(N[C@@H]2CCCN(CC(=O)N(C)[C@H]3CC[C@H](O)CC3)C2)nnc1-c1ccc(C(F)(F)F)cc1O [Compound 18, 2-((R)-3-((6-(2-Hydroxy-4-(trifluoromethyl)phenyl)-5-methylpyridazin-3-yl)amino)piperidin-1-yl)-N-((1r,4R)-4-hydroxycyclohexyl)-N-methylacetamide] | 5 to 50 nM |

From patent US20260217677A1, “ORGANIC COMPOUNDS AS NLRP3 INHIBITORS” (KODIAK SCIENCES, INC., priority 2023, published 2026)
